Results taken from patent publication US20240217951A1, “PCSK9 INHIBITORS AND METHODS OF USE THEREOF” (AstraZeneca AB, priority 2022, published 2024).

How the values were obtained:
[1] = target: T1, human PCSK9 (Homo sapiens, UniProt Q8NBP7); assay: Assay 2 - Biophysical human PCSK9 assay (SPR, Biacore); type: binding; conditions: geometric mean; SPR at 30° C; read-out: Assay 2 (PCSK9 BIAcore DBA CR) GMean Kd
T1 construct: biotinylated human PCSK9 (31-692)-Avi-His6; His6 (C)
Description: Assay 2—Biophysical Human PCSK9 Assay
The SPR binding experiments were performed on a Biacore S200 optical biosensor unit at 30° C. A Series S Sensor Chip SA that is designed to bind biotinylated molecules for interaction analysis in Biacore systems was equilibrated at room temperature prior to use. The running buffer for protein tethering and subsequent ligand binding experiments was 10 mM HEPES pH 7.4, 150 mM NaCl, 0.05% (v/v) Tween 20 pH 7.4.
For the surface tethering of PCSK9, biotinylated human PCSK9 (31-692)-Avi-His6 at a concentration of 0.5 mg/mL was used. Prior to the surface tethering, the surface was exposed to a solution of 50 mM NaOH, 500 mM NaCl via 3 consecutive injections of this solution with a contact time of 60 s and a flowrate of 10 μL min^−1 to remove non-conjugated streptavidin. The PCSK9 protein was diluted to a concentration of 20 μg/mL using running buffer and injected with a contact time of 180-300 s and a flowrate of 10 μL min^−1 over a single flow channel (typically flow channel 2 or flow channel 4) with the aim to achieve protein capture levels of >5000 response units (RU). Remaining biotin binding sites were blocked via 2 consecutive injections of a 10 μM D-biotin solution in running buffer with a contact time of 60 s and a flowrate of 10 μL min^−1 over all flow-channels. Flow-channels 1 and 3 typically served as a reference surface throughout the subsequent binding experiments.
The binding experiments were all performed at a flow rate of 30 PL min^−1 and by employing the method of single-cycle kinetics. This approach involves the sequential injection of a compound concentration series without regeneration steps. A contact time between 90-150 s was selected, which was followed by a 40 min dissociation phase to allow for a proper estimation of the dissociation rate constant. Test compounds were delivered in DMSO at a concentration of 10 mM and a digital dispenser HP D300 was used to set up the compound concentration series using 6 concentrations. The tested concentrations have been 30, 100, 300, 1000, 3000 and 10000 nM. Prior to injecting any compound, the surfaces were equilibrated by injecting running buffer over them in three separate pulses. The data collection rate was set to 10 Hz.
The raw sensorgrams of the compound injections were first subjected to reference subtraction (subtracting the signal from flow channel 1 and/or 3 from the signal from channels 2 and/or 4 respectively) and then blank subtraction (subtracting the signal from injecting DMSO controls from the reference subtracted data). The resulting double-referenced sensorgrams were then fitted using a 1:1 binding interaction model using the manufactures software package to extract kinetic- and affinity data. Active compounds have been defined by creating a detectable binding signal at the highest compound concentration ([…]) of 3 RUs. Kinetic- and affinity data on active compounds are only provided for those compounds where the binding signal at the highest compound concentration ([…]) is 50% of the theoretical maximum binding signal for a 1:1 binding interaction (Rmax, typically between 15-20 RUs) in order to enable a proper fitting of the data.

[2] = target: T2, potassium ion channel hERG (human Ether-á-go-go-Related Gene) (Homo sapiens, UniProt Q12809); assay: Assay 5 - hERG assay (SyncroPatch 384PE patch clamp, CHO cells); type: cell-based; conditions: geometric mean; CHO cells over-expressing hERG; read-out: Assay 5 (hERG Hu CHO IF EPh CR-Syncro) GMean IC50
T2 construct: expressed in transfected cells; host or cells: Chinese hamster ovary K1 (CHO)
T2 sequence (Q12809 whole entry): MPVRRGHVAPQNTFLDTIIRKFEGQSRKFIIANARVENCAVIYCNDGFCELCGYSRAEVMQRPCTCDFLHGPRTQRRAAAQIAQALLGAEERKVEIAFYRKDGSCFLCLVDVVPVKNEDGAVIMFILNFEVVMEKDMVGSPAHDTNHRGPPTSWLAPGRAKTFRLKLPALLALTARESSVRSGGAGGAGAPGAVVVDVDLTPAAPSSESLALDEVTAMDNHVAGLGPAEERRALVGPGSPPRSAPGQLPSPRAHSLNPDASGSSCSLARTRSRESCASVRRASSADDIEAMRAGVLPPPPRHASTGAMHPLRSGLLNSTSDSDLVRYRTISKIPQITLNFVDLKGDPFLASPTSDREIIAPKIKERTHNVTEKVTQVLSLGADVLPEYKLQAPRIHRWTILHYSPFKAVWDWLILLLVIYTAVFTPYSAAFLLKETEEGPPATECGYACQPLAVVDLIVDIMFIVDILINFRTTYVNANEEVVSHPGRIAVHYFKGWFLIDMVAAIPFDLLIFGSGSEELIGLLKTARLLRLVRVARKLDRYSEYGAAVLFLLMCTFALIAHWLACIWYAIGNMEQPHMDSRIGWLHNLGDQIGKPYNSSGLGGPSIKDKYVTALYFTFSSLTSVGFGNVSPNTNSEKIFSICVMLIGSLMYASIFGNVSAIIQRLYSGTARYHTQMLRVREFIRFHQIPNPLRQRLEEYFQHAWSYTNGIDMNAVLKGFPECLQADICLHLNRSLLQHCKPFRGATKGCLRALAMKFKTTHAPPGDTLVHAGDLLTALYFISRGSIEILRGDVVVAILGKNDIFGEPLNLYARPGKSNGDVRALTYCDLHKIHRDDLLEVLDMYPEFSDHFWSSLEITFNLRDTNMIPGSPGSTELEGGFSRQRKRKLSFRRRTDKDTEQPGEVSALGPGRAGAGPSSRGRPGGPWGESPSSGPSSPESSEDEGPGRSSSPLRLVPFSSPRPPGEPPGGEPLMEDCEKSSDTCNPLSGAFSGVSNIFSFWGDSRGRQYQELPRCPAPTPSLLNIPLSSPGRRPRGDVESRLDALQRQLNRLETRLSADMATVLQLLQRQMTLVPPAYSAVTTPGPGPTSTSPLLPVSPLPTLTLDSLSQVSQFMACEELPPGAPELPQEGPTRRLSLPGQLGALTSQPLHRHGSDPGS
Method in brief: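 Automated high-throughput patch clamp on CHO-K1 cells overexpressing hERG at room temperature, KF/KCl internal with escin, NMDG-containing external at pH 7.4. Six-point cumulative compound addition, 0.33% DMSO final; wells kept only with seal >30 MΩ, Z′ >0.4 and current >0.2 nA.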

[3] = target: GSK3β (Glycogen synthase kinase-3 beta) (Homo sapiens, UniProt P49841); assay: Assay 6 - GSK3β assay (ThermoFisher Z-Lyte); type: biochemical; conditions: geometric mean; ATP Conc: 10 μM; read-out: Assay 6 (GSK3β FRET-Z-Lyte CR) GMean IC50 (μM) ATP Conc: 10
GSK3β (Glycogen synthase kinase-3 beta), sequence (P49841 whole entry): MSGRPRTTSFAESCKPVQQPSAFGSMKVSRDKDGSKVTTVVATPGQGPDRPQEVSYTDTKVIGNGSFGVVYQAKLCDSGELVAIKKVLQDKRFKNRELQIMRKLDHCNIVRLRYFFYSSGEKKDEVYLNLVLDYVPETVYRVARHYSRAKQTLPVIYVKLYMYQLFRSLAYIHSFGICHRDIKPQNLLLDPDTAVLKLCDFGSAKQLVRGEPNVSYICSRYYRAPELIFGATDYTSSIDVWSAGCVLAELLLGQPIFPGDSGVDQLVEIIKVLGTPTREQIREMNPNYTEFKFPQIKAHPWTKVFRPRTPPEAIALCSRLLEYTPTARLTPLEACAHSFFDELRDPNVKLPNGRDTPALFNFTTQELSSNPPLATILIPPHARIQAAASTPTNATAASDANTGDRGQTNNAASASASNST
Method in brief: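 Z-Lyte fluorescence kinase assay with 0.22-0.92 ng GSK3β and 2 μM Ser/Thr 09 peptide in 50 mM HEPES pH 7.5, 10 mM MgCl2, 1 mM EGTA, 0.01% BRIJ-35. Kinase reaction 60 min at room temperature, then 60 min development. 10-point 3-fold titration from 10 μM in 1% DMSO, fitted to a sigmoidal dose-response curve.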

[4] = target: PCSK9 (Homo sapiens, UniProt Q8NBP7, G670E/V474I); assay: biochemical
PCSK9, sequence (Q8NBP7 with tags, fused parts or gaps V474I/G670E): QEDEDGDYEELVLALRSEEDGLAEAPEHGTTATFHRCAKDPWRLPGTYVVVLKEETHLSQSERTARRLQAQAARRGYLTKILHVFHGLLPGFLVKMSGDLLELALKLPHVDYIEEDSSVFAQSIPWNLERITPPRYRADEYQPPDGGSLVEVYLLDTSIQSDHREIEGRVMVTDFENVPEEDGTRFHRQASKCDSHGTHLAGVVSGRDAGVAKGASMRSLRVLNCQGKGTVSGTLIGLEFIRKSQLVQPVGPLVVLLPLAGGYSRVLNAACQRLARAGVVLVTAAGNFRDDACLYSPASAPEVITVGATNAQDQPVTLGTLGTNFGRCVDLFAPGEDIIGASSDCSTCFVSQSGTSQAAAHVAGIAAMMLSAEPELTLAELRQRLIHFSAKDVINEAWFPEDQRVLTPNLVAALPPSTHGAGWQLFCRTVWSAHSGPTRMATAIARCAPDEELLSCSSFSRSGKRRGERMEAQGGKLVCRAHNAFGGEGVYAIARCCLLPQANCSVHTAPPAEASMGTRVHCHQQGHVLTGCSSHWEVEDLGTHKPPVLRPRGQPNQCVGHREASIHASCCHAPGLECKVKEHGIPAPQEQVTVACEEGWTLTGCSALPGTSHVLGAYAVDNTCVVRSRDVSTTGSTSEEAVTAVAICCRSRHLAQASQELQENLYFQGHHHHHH

T1 sequence (Q8NBP7 31-692): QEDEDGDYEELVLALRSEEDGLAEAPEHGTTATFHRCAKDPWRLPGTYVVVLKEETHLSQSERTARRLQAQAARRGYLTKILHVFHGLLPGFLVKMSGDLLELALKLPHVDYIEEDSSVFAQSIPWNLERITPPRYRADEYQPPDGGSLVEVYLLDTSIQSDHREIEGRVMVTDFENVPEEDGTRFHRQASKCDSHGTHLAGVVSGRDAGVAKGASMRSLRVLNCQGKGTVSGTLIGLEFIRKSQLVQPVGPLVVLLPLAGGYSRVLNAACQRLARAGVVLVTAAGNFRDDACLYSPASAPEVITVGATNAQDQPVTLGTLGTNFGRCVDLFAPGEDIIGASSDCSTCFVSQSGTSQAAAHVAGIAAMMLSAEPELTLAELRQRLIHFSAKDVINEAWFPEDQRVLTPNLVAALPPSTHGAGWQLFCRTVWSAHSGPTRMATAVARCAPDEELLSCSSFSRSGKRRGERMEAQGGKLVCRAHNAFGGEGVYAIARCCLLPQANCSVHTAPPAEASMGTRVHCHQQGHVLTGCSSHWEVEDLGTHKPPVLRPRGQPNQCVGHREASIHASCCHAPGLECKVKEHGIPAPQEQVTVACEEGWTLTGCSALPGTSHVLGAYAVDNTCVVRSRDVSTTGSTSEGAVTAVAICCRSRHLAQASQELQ

Row | Compound | Kd [1] [nM] | IC50 [2] [nM] | IC50 [3] [µM] | IC50 [4] [nM]
1 | O=C(O)[C@@H]1CCC(=O)N1c1ccc(N[C@H]2CC[C@H](Nc3cnc(OC(F)F)cn3)C2)nc1 [Example 79, (S)-1-(6-(((1S,3S)-3-((5-(Difluoromethoxy)pyrazin-2-yl)amino)cyclopentyl)amino)pyridin-3-yl)-5-oxopyrrolidine-2-carboxylic acid] | 422 | > 40000 | > 10 | 827
2 | Cc1nc(N[C@H]2CC[C@H](Nc3ccc(-n4ccccc4=O)cn3)C2)cnc1Cl [Example 102, 6′-(((1S,3S)-3-((5-Chloro-6-methylpyrazin-2-yl)amino)cyclopentyl)amino)-2H-[1,3′-bipyridin]-2-one] | 122 | 17700 | > 10 | 85
3 | Cc1ncc(N[C@H]2CC[C@H](Nc3ccc(-n4cccc(C)c4=O)cn3)C2)nc1C [Example 18, 6′-(((1S,3S)-3-((5,6-Dimethylpyrazin-2-yl)amino)cyclopentyl)amino)-3-methyl-2H-[1,3′-bipyridin]-2-one] | 14 | > 40000 | > 10 | 17
4 | COc1cnc(N[C@H]2CC[C@H](Nc3ccc(-n4ccccc4=O)cn3)C2)cn1 [Example 140, 6′-(((1S,3S)-3-((5-Methoxypyrazin-2-yl)amino)cyclopentyl)amino)-2H-[1,3′-bipyridin]-2-one] | 81 | > 40000 |  | 309
5 | CN1CC(=O)N(c2ccc(N[C@H]3CC[C@H](Nc4cnc(Cl)cn4)C3)nc2)C1=O [Example 100, 3-(6-(((1S,3S)-3-((5-Chloropyrazin-2-yl)amino)cyclopentyl)amino)pyridin-3-yl)-1-methylimidazolidine-2,4-dione] | 45 | > 40100 | > 10 | 28
6 | O=c1ccccn1-c1ccc(N[C@H]2CC[C@H](Nc3cnc4ccc(Cl)cc4n3)C2)nc1 [Example 139, 6′-(((1S,3S)-3-((7-Chloroquinoxalin-2-yl)amino)cyclopentyl)amino)-2H-[1,3′-bipyridin]-2-one] | 460 | 4600 | 0.292 | 235
7 | O=c1ccccn1-c1ccc(N[C@H]2CC[C@H](Nc3cnc(OC(F)(F)F)cn3)C2)nc1 [Example 111, 6′-(((1S,3S)-3-((5-(Trifluoromethoxy)pyrazin-2-yl)amino)cyclopentyl)amino)-2H-[1,3′-bipyridin]-2-one] | 128 | 20800 | > 10 | 149
8 | N#Cc1cnc(N[C@H]2CC[C@H](Nc3ccc(-n4ccccc4=O)cn3)C2)cn1 [Example 5, 5-(((1S,3S)-3-((2-Oxo-2H-[1,3′-bipyridin]-6′-yl)amino)cyclopentyl)amino)pyrazine-2-carbonitrile] | 412 | 18500 | 0.713 | 499
9 | Nc1ccc2ncc(N[C@H]3CC[C@H](Nc4ccc(-n5ccccc5=O)cn4)C3)nc2n1 [Example 146, 6′-(((1S,3S)-3-((6-Aminopyrido[2,3-b]pyrazin-3-yl)amino)cyclopentyl)amino)-2H-[1,3′-bipyridin]-2-one] | 1500 | > 40000 | > 10 | 1480
10 | Cc1cncc(N[C@H]2CC[C@H](Nc3ccc(-n4ccccc4=O)cn3)C2)n1 [Example 141, 6′-(((1S,3S)-3-((6-Methylpyrazin-2-yl)amino)cyclopentyl)amino)-2H-[1,3′-bipyridin]-2-one] | 405 | > 40000 | > 10 | 592
11 | Cc1cnc(N[C@H]2CC[C@H](Nc3ccc(-n4nccc(C#N)c4=O)cn3)C2)cn1 [Example 278, 2-(6-(((1S,3S)-3-((5-Methylpyrazin-2-yl)amino)cyclopentyl)amino)pyridin-3-yl)-3-oxo-2,3-dihydropyridazine-4-carbonitrile] | 12 | > 40100 | > 10 | 13
12 | Cc1cnc(N[C@H]2CC[C@H](Nc3ccc(-n4nc(C)ccc4=O)cn3)C2)cn1 [Example 231, 6-Methyl-2-(6-(((1S,3S)-3-((5-methylpyrazin-2-yl)amino)cyclopentyl)amino)pyridin-3-yl)pyridazin-3 (2H)-one] | 35 | > 40100 | > 10 | 46
13 | O=c1ccccn1-c1ccc(N[C@H]2CC[C@H](Nc3cnc(OC(F)F)cn3)C2)nc1 [Example 86, 6′-(((1S,3S)-3-((5-(Difluoromethoxy)pyrazin-2-yl)amino)cyclopentyl)amino)-2H-[1,3′-bipyridin]-2-one] | 64 | 13400 | > 10 | 73
14 | Cc1cnc(N[C@H]2CC[C@H](Nc3ccc(-n4ccccc4=O)cn3)C2)cn1 [Example 4, 6′-(((1S,3S)-3-((5-Methylpyrazin-2-yl)amino)cyclopentyl)amino)-2H-[1,3′-bipyridin]-2-one] | 81 | > 40000 | > 10 | 104
15 | O=c1ccccn1-c1ccc(N[C@H]2CC[C@H](Nc3cnc4cccnc4n3)C2)nc1 [Example 143, 6′-(((1S,3S)-3-(Pyrido[2,3-b]pyrazin-3-ylamino)cyclopentyl)amino)-2H-[1,3′-bipyridin]-2-one] | 1540 | > 40000 | > 10 | 2390
16 | Cc1nc(N[C@H]2CC[C@H](Nc3ccc(-n4ccccc4=O)cn3)C2)cnc1C#N [Example 1, 3-Methyl-5-(((1S,3S)-3-((2-oxo-2H-[1,3′-bipyridin]-6′-yl)amino)cyclopentyl)amino)pyrazine-2-carbonitrile] | 1700 | > 40100 |  | 2750
17 | O=c1ccccn1-c1ccc(N[C@H]2CC[C@H](Nc3cnc(Cl)cn3)C2)nc1 [Example 3, 6′-(((1S,3S)-3-((5-Chloropyrazin-2-yl)amino)cyclopentyl)amino)-2H-[1,3′-bipyridin]-2-one] | 39 | 24600 | > 10 | 40
18 | Cc1cnc(N[C@H]2CC[C@H](Nc3ccc(N4CC(=O)N(C)C4=O)cn3)C2)cn1 [Example 39, 3-Methyl-1-(6-(((1S,3S)-3-((5-methylpyrazin-2-yl)amino)cyclopentyl)amino)pyridin-3-yl)imidazolidine-2,4-dione] | 33 | > 40000 | > 10 | 34
19 | N#Cc1cncc(N[C@H]2CC[C@H](Nc3ccc(-n4ccccc4=O)cn3)C2)n1 [Example 142, 6-(((1S,3S)-3-((2-Oxo-2H-[1,3′-bipyridin]-6′-yl)amino)cyclopentyl)amino)pyrazine-2-carbonitrile] | 2420 | > 35400 | 0.764 | 1610
20 | CC(=O)c1cnc(N[C@H]2CC[C@H](Nc3ccc(-n4ccccc4=O)cn3)C2)cn1 [Example 6, 6′-(((1S,3S)-3-((5-Acetylpyrazin-2-yl)amino)cyclopentyl)amino)-2H-[1,3′-bipyridin]-2-one] | 863 | > 40100 |  | 1160
